Experimental findings from PubChem BioAssay AID449762 (Southern Research Specialized Biocontainment Screening …, 2010) are described below.

For orientation: IC50 means the midpoint of a concentration-inhibition curve. The term IC90 denotes the concentration needed for an effect of 90%. Lower therefore signals an effect from little substance.

Results filed as inconclusive are left out.

The test system of this experiment is M. tuberculosis H37Rv growth inhibition, 7H9 media. Description: M. tuberculosis growth inhibition, HTS (AID 449762).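 On all read-outs here: bacterial growth assessed after seven days of incubation.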 To be noted: for IC90: measured here: IC90 growth inhibition.

Regarding `COc1cc(NC(=O)c2ccc(COc3ccccc3Br)o2)cc(OC)c1OC`, the IC50 was 44.3 µM and the IC90 is > 100 µM.

In the case of `CCOc1ccc(C2c3[nH]c4ccccc4c3C[C@H]3C(=O)N(C4CCN(Cc5ccccc5)CC4)CC(=O)N23)cc1OC` (some centres undefined), the IC50 is 21.5 µM and the IC90 was found to be 29.7 µM.

In the case of `Cc1ccc(C)c(-c2nnc(NC(=O)C3=COCCO3)o2)c1`, the IC50 was 5.33 µM and the IC90 is 12.2 µM.

As for `c1cc2c3c(cccc3c1)NC1(CCC3(CC1)Nc1cccc4cccc(c14)N3)N2`, the IC50 was 65.5 µM and the IC90 was > 100 µM.

For the compound `Cc1nc(-c2ccccc2)sc1C(=O)/C=C/c1ccccc1`, the IC50 is 10.3 µM and the IC90 came out at 14.5 µM.

Consider `Cc1ccc2c(c1)nnn2C1CCN(CC(=O)N2CCN(c3ccc(F)cc3)CC2)CC1`, for which the IC50 was 35.3 µM and the IC90 is > 100 µM.

Take `CSc1nsc(SCC(=O)N2CCCCC2)n1`: the IC50 is 5.47 µM and the IC90 is 8.81 µM.

On to `CN(C)CCCNC(=O)c1ccc(-c2nc(-c3ccc(Cl)cc3)cs2)cc1`, for which the IC50 was 27.8 µM and the IC90 is 42.3 µM.

Consider `C=CCc1c(C)nc(SC)nc1Nc1ccc(C(C)=O)cc1`, for which the IC50 is 23.3 µM and the IC90 amounted to 32.6 µM.

As to `O=[N+]([O-])c1cnc(Nc2ccc(Cl)cn2)c([N+](=O)[O-])c1`, the IC50 is 45.8 µM and the IC90 is > 100 µM.

Regarding `Cc1ccc(-c2csc(N3CCN(CCCn4c(-c5ccncc5)nc5ccccc54)CC3)n2)cc1`, the IC50 was 23.4 µM and the IC90 came to 26.5 µM.

For the compound `C/C(=N\NC(=O)c1cc2ccccc2cc1O)c1ccc(C)o1`, the IC50 is 10.1 µM and the IC90 worked out at 36.3 µM.

Regarding `CCc1ccc(NC(=S)/N=C(\N)Nc2nc(C)c3cc(CC)ccc3n2)cc1`, the IC50 is 7.31 µM and the IC90 is 40 µM.

Turning to `CCOC(=O)c1sc(NC(=O)CN2C(=O)NC3(CC(C)CC(C)(C)C3)C2=O)cc1C` (centres undefined), the IC50 was 21.4 µM and the IC90 came out at 40.3 µM.

Regarding `CCN(CC)c1nc(NN)nc(Nc2ccc(C)c(Cl)c2)n1`, the IC50 was 2.85 µM and the IC90 was found to be 6.27 µM.

Regarding `CCOC(=O)c1ccc(NC(=O)Cn2ncc(Cl)c(Cl)c2=O)cc1`, the IC50 is < 0.2 µM and the IC90 came to 0.44 µM.

On to `COc1ccc(C2CC(=O)c3cnc(Nc4cc(C)cc(C)c4)nc3C2)cc1` (centres undefined), for which the IC50 was 12.3 µM and the IC90 came to 22.4 µM.

`C[C@]12C=CC(=O)C=C1CC[C@@H]1C2=CC[C@]2(C)[C@@H](C(=O)CN3CCN(c4cc(N5CCCC5)nc(N5CCCC5)n4)CC3)CC[C@@H]12`: the IC50 is 22.5 µM and the IC90 was 30.4 µM.

As for `NC(=O)c1cccc(-c2cc(Nc3ccc(OC(F)(F)F)cc3)ncn2)c1`, the IC50 is 8.46 µM and the IC90 turned out to be 18.4 µM.

In the case of `O=c1oc(-c2cccs2)nc2c1cnn2-c1ccccc1`, the IC50 is 64.5 µM and the IC90 was > 100 µM.

Take `S=C(Nc1ccc(Cl)cc1)Nc1cccc2cnccc12`: the IC50 was 4.42 µM and the IC90 is 5.24 µM.

As for `CCOc1cc(/C=C\[N+](=O)[O-])ccc1OCC(=O)Nc1ccccc1C`, the IC50 was 6.93 µM and the IC90 worked out at 33.8 µM.

`COc1ccc(C(=O)c2c(C(F)(F)F)oc3c2C(=O)c2ccccc2C3=O)cc1OC`: the IC50 was 12 µM and the IC90 is 17.7 µM.

For `O=C(CCl)Nc1nccs1`, the IC50 is 2.01 µM and the IC90 came out at 4.71 µM.

For `OC(CNCCc1ccc(C(F)(F)F)cc1)COC(c1ccccc1)c1ccccc1` (centres undefined), the 50% inhibitory concentration (IC50) was 16.7 µM and the IC90 was 21.2 µM.

In the case of `COC(=O)c1ccc(/C=C/c2c(-c3ccsc3)oc3ccc(N4CCOCC4)cc23)cc1`, the IC50 was 21.2 µM and the IC90 was determined as 41.2 µM.

`COc1cc2c(cc1OC)C(c1cc(Br)ccc1F)N(C(=O)CCl)CC2` (centres undefined): the IC50 is 2.77 µM and the IC90 came out at 5.69 µM.

On to `Cc1cc(C(=O)CCl)c(C)n1-c1cccc([N+](=O)[O-])c1`, for which the IC50 was < 0.2 µM and the IC90 came out at 1.54 µM.

Take `CN(CC(=O)Nc1ccc(F)c(F)c1F)c1cnccn1`: the IC50 was 6.08 µM and the IC90 was determined as 12.8 µM.

For the compound `CNc1ncnc2c1ncn2[C@@H]1O[C@H](CO)[C@@H](O)[C@H]1O`, the IC50 was 2.68 µM and the IC90 came out at 5.73 µM.

Regarding `CCOC(=O)c1csc(-c2snnc2C)n1`, the IC50 was 21.4 µM and the IC90 worked out at 52 µM.

With `Cc1n[nH]c(=S)n1/N=C/c1cccc(OCc2ccccc2)c1`, the IC50 is 75.4 µM and the IC90 is > 100 µM.

`CC(=O)c1cccc(NC(=O)C2C3C=CC(C3=C(c3ccccc3)c3ccccc3)C2C(=O)O)c1` (centres undefined): the IC90 is > 100 µM.

For `Cc1cccc(/C=C/C(=O)c2ccc([N+](=O)[O-])o2)c1`, the IC50 is < 0.2 µM and the IC90 is < 0.2 µM.

`Cc1ccc(C(=O)N/C(=C/c2ccc(-c3cc(C(F)(F)F)ccc3Cl)o2)C(=O)NCc2cccnc2)cc1`: the IC50 is 37.8 µM and the IC90 was > 100 µM.

On to `C/C(=N/Nc1cc(-c2ccccc2)nc(-c2ccccc2)n1)c1ccc(O)cc1`, for which the IC50 is 9.45 µM and the IC90 was 13.8 µM.

In the case of `O=C(/C=C/c1cccnc1)c1cccc(O)c1`, the IC50 was 6.48 µM and the 90% effect concentration (IC90) was 14.8 µM.

For `N#CC(C(=O)Nc1ccccc1)=C1Nc2ccccc2N1`, the IC50 is 34.9 µM and the IC90 is > 100 µM.

With `COc1ccccc1/C=C/C(=O)Nc1ccc(S(=O)(=O)Nc2cc(C)on2)cc1`, the IC50 is 5.01 µM and the IC90 worked out at 17.3 µM.

As for `CN(C(=O)c1cccc(Nc2ccc(-c3ccc4c(c3)OCCO4)nn2)c1)C1CCCCC1`, the IC50 was 50.8 µM and the IC90 is > 100 µM.

For `Cc1c(NC(=O)c2ccc([N+](=O)[O-])o2)cccc1-c1nc2ncccc2o1`, the IC50 was 8.36 µM and the IC90 is > 25 µM.

Consider `O=[N+]([O-])c1ncccc1Oc1nc(-c2cccnc2)nc2ccccc12`, for which the IC50 is < 0.2 µM and the IC90 is 1.36 µM.

`Cc1nc2ccccc2c2nc3ccccc3n12`: the IC50 was 33.8 µM and the IC90 was determined as 55.2 µM.

Consider `COc1ccc(C)c2sc(N(CCN(C)C)C(=O)/C=C/c3cccs3)nc12`, for which the IC50 was 25.2 µM and the IC90 was determined as 35.9 µM.

As to `CCOc1ccc(N2CCc3c(C)nc(SC)nc32)cc1`, the IC50 is < 0.2 µM and the IC90 is > 100 µM.

Turning to `Cc1ccc(-c2noc(=O)n2CC(=O)c2ccc(Cl)cc2)cc1`, the IC50 is 44.3 µM and the IC90 was > 100 µM.

With `COC(=O)CSc1nnc(-c2sc3cc(OC)ccc3c2Cl)n1C`, the IC50 was 9.08 µM and the IC90 was > 100 µM.

As for `CCCCCCCCNC(=O)CCNC(=O)c1ccc(C(C)(C)C)cc1`, the IC50 is 35.3 µM and the IC90 was determined as 44.6 µM.

For the compound `CCN1CCN(Cc2ccc(NC(=O)c3cc(NC(=O)c4cncc(-c5cccs5)c4)cc(OC)c3)cc2C(F)(F)F)CC1`, the IC50 is 10.2 µM and the IC90 is 14.6 µM.

For `CCCCN1C(=N)N([C@@H](CCC)CN2CCC[C@H]2CN2C(N)=NC[C@@H]2Cc2ccccc2)C[C@H]1Cc1ccccc1`, the IC50 was 12.8 µM and the IC90 is 18.2 µM.

For the compound `O=C1C(Br)=Cc2cccc3cccc1c23`, the IC50 was < 0.2 µM and the IC90 was < 0.2 µM.

Turning to `COC(=O)c1c(NC(=S)NN2CCN(C)CC2)sc2c1CCC(C)C2` (centres undefined), the IC50 is 23 µM and the IC90 came to 25.9 µM.

As to `C=CC[N@@+]12CC[C@]34c5ccccc5N5/C=C6\C7N(/C=C(\C53)[C@@H](C[C@@H]41)/C(=C/CO)C2)c1ccccc1[C@@]71CC[N@@+]2(CC=C)C/C(=C\CO)[C@@H]6C[C@@H]12` (some centres undefined), the half-maximal inhibitory concentration (IC50) was 56.7 µM and the IC90 was > 100 µM.

With `CCOC(=O)c1c(NC(=O)CSc2nc3ccc(OC)cc3[nH]2)sc2c1CC(C)(C)NC2(C)C`, the IC50 is 21.1 µM and the IC90 worked out at 26.2 µM.

As for `COc1ccccc1C1=NOC(COC(=O)c2ccc([N+](=O)[O-])cc2)C1` (centres undefined), the IC50 was 34.4 µM and the concentration for an effect of 90% (IC90) was > 100 µM.

Regarding `COc1ccc(CN2CCN(C(c3ccc(F)cc3)c3ccc(F)cc3)CC2)c(OC)c1OC`, the 50% inhibitory concentration (IC50) was 23.3 µM and the IC90 worked out at 26.3 µM.

As to `COc1ccc(-c2nnc(NC(=O)c3ccc([N+](=O)[O-])o3)o2)c(OC)c1`, the IC50 is 1.05 µM and the IC90 turned out to be 3.04 µM.

Regarding `CC(CC(=O)Nc1ccc(Cl)c([N+](=O)[O-])c1)c1ccccc1` (centres undefined), the IC50 is 16 µM and the IC90 stood at 40.7 µM.

`Cc1ccc2c(c1)Oc1ccc(NC(=O)CCl)cc1C(=O)N2`: the IC50 is 7.88 µM and the IC90 was > 100 µM.

Regarding `CC(C)Cc1nc2oc3c(N4CCN(CCO)CC4)ncnc3c2c2c1CCCC2`, the IC50 is 18.3 µM and the IC90 was 26.1 µM.

For `Cc1ccc(-c2cc(-c3ccccc3C)[nH]n2)c(O)c1`, the IC50 was 22.2 µM and the concentration for an effect of 90% (IC90) is > 100 µM.

For `O=C(CSc1nc2ccccc2nc1N1CCOCC1)N1CCN(c2ccccc2)CC1`, the IC50 was 11.4 µM and the IC90 is 13.2 µM.

Take `CCCC12CN3CC(CCC)(CN(C1)C3c1ccccn1)C2=O` (centres undefined): the IC50 was 1.02 µM and the IC90 worked out at 18.1 µM.

`CCOC(=O)CSc1nsc(SCC(=O)OCC)c1C#N`: the IC50 is 11.9 µM and the IC90 is 13.6 µM.

Turning to `Cc1ccc(S(=O)(=O)N2CCC(C(=O)OCc3ccccc3)CC2)cc1C`, the IC50 was 22.1 µM and the IC90 worked out at 40.6 µM.

Regarding `Cc1nn(-c2ccccc2)nc1C(=O)c1c(C)[nH]n(-c2ccccc2)c1=O`, the IC50 is 9.7 µM and the 90% effect concentration (IC90) worked out at 18.7 µM.

For `COC(=O)C(C)Oc1ccc(Cc2ncc(C(F)(F)F)cc2Cl)cc1` (centres undefined), the IC50 was 2.43 µM and the IC90 is 5.77 µM.

`CCOc1cc(-c2c(C#N)c(=O)[nH]c3c2c(C)nn3-c2ccc(F)cc2)ccc1O`: the IC50 was 1.21 µM and the IC90 is 4.98 µM.

For the compound `O=C(NC(=S)Nc1cccc2cccnc12)c1ccccc1`, the IC50 is 14.7 µM and the IC90 was > 100 µM.

On to `Cc1cccc(/C=c2\s/c(=C\C(=O)C(C)(C)C)[nH]c2=O)c1`, for which the 50% inhibitory concentration (IC50) was 5.66 µM and the IC90 came to 23.6 µM.
